Laboratory results published in PubChem BioAssay AID248 (DTP/NCI, 2004).
Where “and” joins values, the source holds several entries; their conditions need not be identical. Equal values may be shown once. Inconclusive results and toxic doses are left out. Square brackets hold non-standard residues; d marks the D form. Peptide text beside a SMILES is read from it. * marks the point of attachment. ξ: configuration not given here. Cbz = O=C(OCc1ccccc1)*; OBn = c1ccc(CO*)cc1; ξP = O=C(O)C1CCCN1

Test system: L1210 leukemia ip in BDF1 mice, survival T/C
Assay: NCI In Vivo Anticancer Drug Screen. Data for tumor model L1210 Leukemia (intraperitoneal) in B6D2F1 (BDF1) mice
Conditions: endpoint: mean survival time, higher = longer survival
In short: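 Tumor cells were implanted, animals were treated, and survival was followed. The result divides the treated measurement by the vehicle-control measurement.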

[1] = dose: 100.0 mg/kg/injection, schedule: Q01DX009 (ip), vehicle: saline sonified
[2] = dose: 100.0 mg/kg/injection, schedule: Q04DX003 (ip), vehicle: saline sonified
[3] = dose: 200.0 mg/kg/injection, schedule: Q04DX003 (ip), vehicle: saline sonified
[4] = dose: 400.0 mg/kg/injection, schedule: Q04DX003 (ip), vehicle: saline sonified
[5] = dose: 100.0 mg/kg/injection, schedule: Q04DX003 (ip), vehicle: Klucel (hydroxypropylcellulose) (HPC)
[6] = dose: 200.0 mg/kg/injection, schedule: Q04DX003 (ip), vehicle: Klucel (hydroxypropylcellulose) (HPC)
[7] = dose: 400.0 mg/kg/injection, schedule: Q04DX003 (ip), vehicle: Klucel (hydroxypropylcellulose) (HPC)
[8] = dose: 100.0 mg/kg/injection, schedule: Q01DX009 (ip), vehicle: Klucel (hydroxypropylcellulose) (HPC)
[9] = dose: 200.0 mg/kg/injection, schedule: Q01DX009 (ip), vehicle: Klucel (hydroxypropylcellulose) (HPC)
[10] = dose: 400.0 mg/kg/injection, schedule: Q01DX009 (ip), vehicle: Klucel (hydroxypropylcellulose) (HPC)
[11] = dose: 100.0 mg/kg/injection, schedule: Q01DX001 (ip), vehicle: carboxymethylcellulose (CMC)
[12] = dose: 200.0 mg/kg/injection, schedule: Q01DX001 (ip), vehicle: carboxymethylcellulose (CMC)
[13] = dose: 100.0 mg/kg/injection, schedule: Q04DX002 (ip), vehicle: Klucel (hydroxypropylcellulose) (HPC)
[14] = dose: 200.0 mg/kg/injection, schedule: Q04DX002 (ip), vehicle: Klucel (hydroxypropylcellulose) (HPC)
[15] = dose: 400.0 mg/kg/injection, schedule: Q04DX002 (ip), vehicle: Klucel (hydroxypropylcellulose) (HPC)
[16] = dose: 100.0 mg/kg/injection, schedule: Q04DX003 (ip), vehicle: saline
[17] = dose: 200.0 mg/kg/injection, schedule: Q04DX003 (ip), vehicle: saline
[18] = dose: 400.0 mg/kg/injection, schedule: Q04DX003 (ip), vehicle: saline
[19] = dose: 50.0 mg/kg/injection, schedule: Q01DX001 (ip), vehicle: saline
[20] = dose: 100.0 mg/kg/injection, schedule: Q01DX001 (ip), vehicle: saline
[21] = dose: 200.0 mg/kg/injection, schedule: Q01DX001 (ip), vehicle: saline
[22] = dose: 400.0 mg/kg/injection, schedule: Q01DX001 (ip), vehicle: saline

Structure (SMILES): CCOC(=O)COCc1ccccc1
- T/C (dose: 25.0 mg/kg/injection, schedule: Q01DX009 (ip), vehicle: saline sonified): 98 % of control
- T/C (dose: 50.0 mg/kg/injection, schedule: Q01DX009 (ip), vehicle: saline sonified): 93 % of control
- T/C [1]: 98 % of control
- T/C [2]: 97 % of control
- T/C (dose: 176.0 mg/kg/injection, schedule: Q04DX003 (ip), vehicle: saline sonified): 98 % of control
- T/C [3]: 90 % of control
- T/C (dose: 264.0 mg/kg/injection, schedule: Q04DX003 (ip), vehicle: saline sonified): 91 % of control
- T/C [4]: 104 % of control

Structure (SMILES): C=CCN(CC=C)c1nn[nH]n1
- T/C [5]: 92 % of control
- T/C [6]: 88 % of control
- T/C [7]: 88 % of control

Structure (SMILES): CN(C(=O)/C=C/c1ccc([N+](=O)[O-])cc1)c1ccc(S(=O)(=O)F)cc1
- T/C [8]: 91 % of control
- T/C [9]: 94 % of control
- T/C [10]: 97 % of control

Structure (SMILES): CS(=O)(=O)O/C=C(\C#N)C(=O)O
- T/C [11]: 103 % of control
- T/C [12]: 106 % of control

Structure (SMILES): CC1CC(C)(C)N=C(CCC2CCCC23OCCO3)O1 (configuration not stated)
- T/C [1]: 98 % of control
- T/C [2]: 101 % of control
- T/C (dose: 200.0 mg/kg/injection, schedule: Q01DX009 (ip), vehicle: saline sonified): 98 % of control
- T/C [3]: 101 % of control
- T/C (dose: 400.0 mg/kg/injection, schedule: Q01DX009 (ip), vehicle: saline sonified): 94 % of control
- T/C [4]: 101 % of control

Structure (SMILES): COc1cc(C)c2cc(C)cc(C)c2n1
- T/C (dose: 100.0 mg/kg/injection, schedule: Q01DX001 (ip), vehicle: other): 95 % of control
- T/C (dose: 200.0 mg/kg/injection, schedule: Q01DX001 (ip), vehicle: other): 101 % of control
- T/C (dose: 400.0 mg/kg/injection, schedule: Q01DX001 (ip), vehicle: other): 93 % of control

Structure (SMILES): CCCCNC(=O)Nc1cc(C)ccc1Cl
- T/C [13]: 115 % of control
- T/C [14]: 97 % of control
- T/C [15]: 105 % of control

Structure (SMILES): CSCCCN
- T/C (dose: 100.0 mg/kg/injection, schedule: Q01DX009 (ip), vehicle: saline): 99 % of control
- T/C [16]: 102 % of control
- T/C (dose: 200.0 mg/kg/injection, schedule: Q01DX009 (ip), vehicle: saline): 95 % of control
- T/C [17]: 104 % of control
- T/C (dose: 400.0 mg/kg/injection, schedule: Q01DX009 (ip), vehicle: saline): 95 % of control
- T/C [18]: 96 % of control

Structure (SMILES): CCN(CC)C(=O)C1C2CC3OC(=O)C1C3C2 (configuration not stated)
- T/C [16]: 105 % of control and 108 % of control
- T/C [17]: 94 % of control and 102 % of control
- T/C [18]: 104 % of control

Structure (SMILES): O=C1C=C(N2CC2)C(=O)C(N2CC2)=C1N1CC1
- T/C (dose: 0.07 mg/kg/injection, schedule: Q01DX001 (ip), vehicle: saline): 112 % of control
- T/C (dose: 0.1 mg/kg/injection, schedule: Q01DX Z (ip), vehicle: saline): 93 % of control
- T/C (dose: 0.3 mg/kg/injection, schedule: Q01DX001 (ip), vehicle: saline): 155 % of control
- T/C (dose: 0.6 mg/kg/injection, schedule: Q01DX001 (ip), vehicle: saline): 87 % of control
- T/C (dose: 6.3 micrograms/kg/injection, schedule: Q01DX015 (ip), vehicle: saline): 107 % of control
- T/C (dose: 12.5 micrograms/kg/injection, schedule: Q01DX015 (ip), vehicle: saline): 102 % of control
- T/C (dose: 25.0 micrograms/kg/injection, schedule: Q01DX015 (ip), vehicle: saline): 113 % of control
- T/C (dose: 75.0 micrograms/kg/injection, schedule: Q01DX009 (ip), vehicle: saline): 113 % of control

Structure (SMILES): C[N+](C)(C)CCC[N+]1(C)CCC2(CCCC(C(F)(F)F)C2)CC1 (configuration not stated)
- T/C [19]: 98 % of control
- T/C [20]: 104 % of control
- T/C [21]: 96 % of control

Structure (SMILES): O=NN1CCCNC1=O
- T/C (dose: 3.0 mg/kg/injection, schedule: Q01DX Z (ip), vehicle: carboxymethylcellulose (CMC)): 105 % of control
- T/C (dose: 6.0 mg/kg/injection, schedule: Q01DX Z (ip), vehicle: carboxymethylcellulose (CMC)): 107 % of control
- T/C (dose: 12.0 mg/kg/injection, schedule: Q01DX Z (ip), vehicle: carboxymethylcellulose (CMC)): 110 % of control
- T/C (dose: 50.0 mg/kg/injection, schedule: Q01DX Z (ip), vehicle: carboxymethylcellulose (CMC)): 181 % of control
- T/C (dose: 75.0 mg/kg/injection, schedule: Q01DX Z (ip), vehicle: carboxymethylcellulose (CMC)): 118 % of control
- T/C (dose: 100.0 mg/kg/injection, schedule: Q01DX Z (ip), vehicle: carboxymethylcellulose (CMC)): 87 % of control

Structure (SMILES): Oc1c(Br)cc(Br)cc1/C=C/NC(=S)NC1CC2CC1C1C=CCC21 (configuration not stated)
- T/C [8]: 105 % of control
- T/C [9]: 94 % of control
- T/C [10]: 97 % of control

Structure (SMILES): CCC(C)CCC(C)C1CCC2C3CCC4C=C(OC(C)=O)CCC4(C)C3CCC12C (configuration not stated)
- T/C (dose: 100.0 mg/kg/injection, schedule: Q04DX002 (ip), vehicle: saline with Tween-80): 103 % of control
- T/C (dose: 200.0 mg/kg/injection, schedule: Q04DX002 (ip), vehicle: saline with Tween-80): 98 % of control
- T/C (dose: 400.0 mg/kg/injection, schedule: Q04DX002 (ip), vehicle: saline with Tween-80): 98 % of control

Structure (SMILES): O=C(O)COc1ccccc1C(=O)O
- T/C (dose: 5.0 mg/kg/injection, schedule: Q01DX001 (ip), vehicle: saline): 100 % of control
- T/C (dose: 10.0 mg/kg/injection, schedule: Q01DX001 (ip), vehicle: saline): 100 % of control
- T/C (dose: 20.0 mg/kg/injection, schedule: Q01DX001 (ip), vehicle: saline): 96 % of control
- T/C (dose: 20.0 mg/kg/injection, schedule: Q04DX002 (ip), vehicle: Klucel (hydroxypropylcellulose) (HPC)): 88 % of control
- T/C (dose: 40.0 mg/kg/injection, schedule: Q01DX001 (ip), vehicle: saline): 96 % of control
- T/C (dose: 40.0 mg/kg/injection, schedule: Q04DX002 (ip), vehicle: Klucel (hydroxypropylcellulose) (HPC)): 98 % of control
- T/C (dose: 80.0 mg/kg/injection, schedule: Q04DX002 (ip), vehicle: Klucel (hydroxypropylcellulose) (HPC)): 100 % of control
- T/C [8]: 89 % of control
- T/C [13]: 95 % of control
- T/C [9]: 86 % of control
- T/C [14]: 98 % of control
- T/C [10]: 89 % of control
- T/C [15]: 103 % of control

Structure (SMILES): O=c1cc[nH]c2ccc(Cl)cc12
- T/C [19]: 117 % of control
- T/C [20]: 102 % of control

Structure (SMILES): O=C(O)CNCc1ccc(Cl)cc1
- T/C (dose: 12.5 mg/kg/injection, schedule: Q01DX009 (ip), vehicle: water): 104 % of control
- T/C (dose: 25.0 mg/kg/injection, schedule: Q01DX009 (ip), vehicle: water): 96 % of control
- T/C (dose: 50.0 mg/kg/injection, schedule: Q01DX009 (ip), vehicle: water): 104 % of control and 91 % of control
- T/C (dose: 100.0 mg/kg/injection, schedule: Q01DX009 (ip), vehicle: water): 100 % of control
- T/C (dose: 100.0 mg/kg/injection, schedule: Q01DX Z (ip), vehicle: saline): 111 % of control
- T/C (dose: 100.0 mg/kg/injection, schedule: Q04DX003 (ip), vehicle: water): 88 % of control
- T/C (dose: 200.0 mg/kg/injection, schedule: Q01DX Z (ip), vehicle: saline): 100 % of control
- T/C (dose: 200.0 mg/kg/injection, schedule: Q04DX003 (ip), vehicle: water): 92 % of control

Structure (SMILES): N#CCCNC(CO)C(=O)O (configuration not stated)
- T/C [11]: 94 % of control
- T/C [12]: 92 % of control
- T/C (dose: 400.0 mg/kg/injection, schedule: Q01DX001 (ip), vehicle: carboxymethylcellulose (CMC)): 89 % of control

Structure (SMILES): O=C(NCC(=O)N1CCCC1C(=O)OCc1ccccc1)OCc1ccccc1 (stereo not drawn) (Cbz-Gly-[ξP]-OBn)
- T/C [5]: 106 % of control
- T/C [6]: 106 % of control
- T/C [7]: 102 % of control

Structure (SMILES): CCC(C)(CC)NC(C)=O
- T/C [5]: 99 % of control
- T/C [6]: 103 % of control

Structure (SMILES): CSCCC(NC(=O)C(C)N)C(=O)O (configuration not stated)
- T/C [20]: 90 % of control
- T/C [21]: 92 % of control
- T/C [22]: 101 % of control

Structure (SMILES): O=[N+]([O-])c1ccc(Cl)cc1/C=N/NC(=S)Nc1cccc2cccnc12
- T/C [20]: 100 % of control
- T/C [21]: 103 % of control
- T/C [22]: 100 % of control
